# ± gives the expanded uncertainty stated by the source.
# Legend:
# [1] = xn = mol fraction of the nth substance listed; conditions: 283.15 K; 101 kPa; Liquid; Pycnometric method; x2 = 0
# [2] = 101.33 kPa, Liquid
mass density [1] [kg/m3],mass density ([2]; 283.15 K) [kg/m3],mass density ([2]; 288.15 K) [kg/m3],mass density ([2]; 293.15 K) [kg/m3],mass density ([2]; 298.15 K) [kg/m3],mass density ([2]; 303.15 K) [kg/m3],mass density ([2]; 308.15 K) [kg/m3],Compound
999.7 ± 0.3,,,,,,,O [water] + OCCCCCCO
999.7 ± 0.3,,,,,,,O [water] + CC(O)CCCCO
999.69 ± 0.3,,,,,,,O [water] + CCCCC(O)CO
,958.87 ± 1.2,955.23 ± 1.2,951.68 ± 1.2,948.08 ± 1.2,944.54 ± 1.2,940.88 ± 1.2,"CCCCC(O)CO (configuration not stated) [1,2-hexanediol]"
999.7 ± 0.3,,,,,,,O [water] + CC(O)CCC(C)O
,968.85 ± 0.68,965.56 ± 0.65,962.17 ± 0.63,959.09 ± 0.65,955.72 ± 0.67,952.39 ± 0.68,"CC(O)CCC(C)O (configuration not stated) [2,5-hexanediol]"
,978.41 ± 0.69,975.51 ± 0.66,972.31 ± 0.64,968.91 ± 0.66,965.51 ± 0.67,962.15 ± 0.69,"CC(O)CCCCO (configuration not stated) [1,5-hexanediol]"
